In patent US10479795B2 (Incyte Corporation, priority 2016, dated 2019):
Structures can show the parent of a compound that is named as a salt. Where two headings read alike, the source gives them in different places.

Assays:
[1] = biological target: PI3Kγ (p110γ) Recombinant Human Protein (Homo sapiens (Human), UniProt P48736); experiment: PI3K-γ Scintillation Proximity Assay; type: biochemical; conditions: read-out: PI3Kγ IC50
How it was run: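 Recombinant human p110γ assayed at room temperature in 20 mM MOPS pH 6.7, 10 mM MgCl2, 5 mM DTT, 0.03% CHAPS, 2% DMSO, with 20 μM PIP2 and 2 μM ATP plus [γ-33P]ATP. Product captured on WGA SPA beads overnight and counted; IC50 fitted from % of solvent-control activity versus log inhibitor concentration.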

[2] = biological target: PI3Kδ (p110δ/p85α) Recombinant Human Protein (Homo sapiens (Human), UniProt O00329); experiment: PI3Kδ Scintillation Proximity Assay; type: biochemical
How it was run: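 Recombinant human p110δ/p85α (3.4 nM) phosphorylates 20 μM di-octanoyl PIP2 using 2 μM ATP spiked with [γ-33P]ATP, 120 min, room temperature, pH 6.7, 2% DMSO. Product measured by scintillation proximity; IC50 from dose-response fit.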

[3] = test system: Phosphorylated Ribosomal Protein S6 (RPS6); experiment: THP-1 RPS6 ELISA Assay; type: cell-based, Human; conditions: THP-1 cells, read-out: PI3Kγ_THP1_RPS6_ELISA IC50
Experimental: To measure the Phosphorylated Ribosomal Protein S6 (RPS6) in cell lysates, THP-1 cells (Human Acute Monocytic Leukemia) are purchased from ATCC (Manassas, Va.) and maintained in RPMI with 10% FBS (Gibco/Life Technologies, Carlsbad, Calif.). For the assay, THP-1 cells are serum starved overnight in RPMI, then plated in RPMI (2×10^5 cells/well in 90 μL) into 96-well flat-bottom tissue culture treated plates (Corning, Corning, N.Y.), in the presence or absence of a concentration range of test compounds. Covered plates are incubated for 2 hours at 37° C., 5% CO2 then treated with or without 10 nM MCP-1 (MYBioSource, San Diego, Calif.) for 15 minutes at 37° C., 5% CO2. Plates are centrifuged at 1600 RPM and supernatants are removed. Cells are lysed in Lysis Buffer (Cell Signaling, Danvers, Mass.) with Protease Inhibitor (Calbiochem/EMD, Germany), PMSF (Sigma, St Louis Mo.), HALTS (Thermo Fisher, Rockford, Ill.) for 30 min on wet ice. Cell lysates are frozen at −80° C. before testing. The lysates are tested in the Human/Mouse/Rat Phospho-RPS6 ELISA (R&D Systems, Inc. Minn, Minn.). The plate is measured using a microplate reader (SpectraMax M5 —Molecular Devices, LLC Sunnyvale, Calif.) set to 450 nm with a wavelength correction of 540. IC50 determination is performed by fitting the curve of inhibitor percent inhibition versus the log of the inhibitor concentration using the GraphPad Prism 5.0 software.

Sequence of PI3Kδ (p110δ/p85α) Recombinant Human Protein (O00329 whole entry): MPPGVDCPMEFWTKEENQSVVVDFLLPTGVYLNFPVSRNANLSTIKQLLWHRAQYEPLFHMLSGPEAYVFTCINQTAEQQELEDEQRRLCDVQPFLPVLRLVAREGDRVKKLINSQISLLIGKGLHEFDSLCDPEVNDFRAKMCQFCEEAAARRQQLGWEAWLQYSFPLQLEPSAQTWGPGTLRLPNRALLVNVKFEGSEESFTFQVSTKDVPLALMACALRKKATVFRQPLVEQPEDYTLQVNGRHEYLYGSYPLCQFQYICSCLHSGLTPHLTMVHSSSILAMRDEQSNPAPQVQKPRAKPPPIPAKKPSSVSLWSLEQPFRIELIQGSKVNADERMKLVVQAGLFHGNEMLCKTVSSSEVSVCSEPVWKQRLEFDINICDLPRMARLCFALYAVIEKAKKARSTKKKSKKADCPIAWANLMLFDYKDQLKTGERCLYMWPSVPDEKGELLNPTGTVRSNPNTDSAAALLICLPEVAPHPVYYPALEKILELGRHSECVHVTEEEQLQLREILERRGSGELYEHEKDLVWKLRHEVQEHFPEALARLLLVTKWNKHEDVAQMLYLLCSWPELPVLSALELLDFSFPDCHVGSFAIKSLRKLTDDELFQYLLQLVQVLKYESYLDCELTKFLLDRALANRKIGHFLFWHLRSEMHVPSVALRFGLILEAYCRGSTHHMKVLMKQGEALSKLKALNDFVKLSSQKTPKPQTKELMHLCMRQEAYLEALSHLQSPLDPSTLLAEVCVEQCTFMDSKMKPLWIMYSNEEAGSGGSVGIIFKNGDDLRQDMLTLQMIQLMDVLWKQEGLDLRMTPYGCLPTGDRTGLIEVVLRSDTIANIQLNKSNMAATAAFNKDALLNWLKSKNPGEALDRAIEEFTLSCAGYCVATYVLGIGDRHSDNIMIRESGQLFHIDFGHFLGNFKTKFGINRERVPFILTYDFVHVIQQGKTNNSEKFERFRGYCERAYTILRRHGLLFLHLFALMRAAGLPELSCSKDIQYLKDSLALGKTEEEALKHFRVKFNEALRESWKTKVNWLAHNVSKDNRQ
Sequence of PI3Kδ (p110δ/p85α) Recombinant Human Protein (P27986 whole entry partner): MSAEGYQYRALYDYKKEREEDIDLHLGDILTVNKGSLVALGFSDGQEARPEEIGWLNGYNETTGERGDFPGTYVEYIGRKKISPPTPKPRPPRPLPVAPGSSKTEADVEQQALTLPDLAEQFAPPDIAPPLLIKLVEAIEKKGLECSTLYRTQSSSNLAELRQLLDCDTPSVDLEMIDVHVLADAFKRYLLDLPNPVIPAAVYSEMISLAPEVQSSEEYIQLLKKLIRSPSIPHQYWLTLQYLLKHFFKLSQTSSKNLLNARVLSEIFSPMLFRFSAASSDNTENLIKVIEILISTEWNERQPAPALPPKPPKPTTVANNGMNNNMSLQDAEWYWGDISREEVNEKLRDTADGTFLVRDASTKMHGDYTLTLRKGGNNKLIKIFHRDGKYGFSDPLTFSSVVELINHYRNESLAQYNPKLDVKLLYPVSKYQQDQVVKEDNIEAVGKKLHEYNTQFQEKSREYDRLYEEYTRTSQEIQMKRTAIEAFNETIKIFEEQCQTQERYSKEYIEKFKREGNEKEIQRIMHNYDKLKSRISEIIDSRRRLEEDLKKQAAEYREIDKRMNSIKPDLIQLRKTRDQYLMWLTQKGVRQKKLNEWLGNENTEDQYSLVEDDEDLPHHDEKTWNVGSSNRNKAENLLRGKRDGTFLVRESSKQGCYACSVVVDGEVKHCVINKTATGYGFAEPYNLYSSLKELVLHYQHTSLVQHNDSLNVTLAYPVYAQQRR
Sequence of PI3Kγ (p110γ) Recombinant Human Protein (P48736 whole entry): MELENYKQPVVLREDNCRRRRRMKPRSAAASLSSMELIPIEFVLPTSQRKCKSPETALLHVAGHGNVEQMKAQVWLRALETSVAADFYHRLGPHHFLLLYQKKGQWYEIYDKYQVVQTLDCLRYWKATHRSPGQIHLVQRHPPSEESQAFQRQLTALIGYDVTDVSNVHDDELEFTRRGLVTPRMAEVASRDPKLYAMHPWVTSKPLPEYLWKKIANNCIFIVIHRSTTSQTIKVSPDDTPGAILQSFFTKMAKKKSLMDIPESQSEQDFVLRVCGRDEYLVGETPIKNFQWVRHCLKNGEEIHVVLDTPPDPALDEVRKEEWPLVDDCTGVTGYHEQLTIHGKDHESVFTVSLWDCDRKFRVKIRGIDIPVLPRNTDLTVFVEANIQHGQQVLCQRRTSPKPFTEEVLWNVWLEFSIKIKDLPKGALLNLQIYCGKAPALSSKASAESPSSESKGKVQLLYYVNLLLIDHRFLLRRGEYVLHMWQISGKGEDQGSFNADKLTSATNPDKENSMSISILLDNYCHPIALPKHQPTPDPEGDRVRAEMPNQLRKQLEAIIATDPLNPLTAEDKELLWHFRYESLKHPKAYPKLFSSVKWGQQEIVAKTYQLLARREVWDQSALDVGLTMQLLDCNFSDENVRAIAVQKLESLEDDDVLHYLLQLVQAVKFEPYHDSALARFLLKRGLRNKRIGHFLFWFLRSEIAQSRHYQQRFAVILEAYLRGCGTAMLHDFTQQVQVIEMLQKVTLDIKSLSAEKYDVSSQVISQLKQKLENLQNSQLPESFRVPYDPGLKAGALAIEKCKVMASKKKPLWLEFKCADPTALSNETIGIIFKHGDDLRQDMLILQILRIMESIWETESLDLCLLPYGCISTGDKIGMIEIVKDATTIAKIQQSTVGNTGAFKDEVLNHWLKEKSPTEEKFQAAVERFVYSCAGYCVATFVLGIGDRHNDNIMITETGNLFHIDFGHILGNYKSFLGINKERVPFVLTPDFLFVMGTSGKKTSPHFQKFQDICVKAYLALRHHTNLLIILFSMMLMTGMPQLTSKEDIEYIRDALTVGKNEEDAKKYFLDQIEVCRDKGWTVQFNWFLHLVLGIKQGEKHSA

Row | IC50 [1] [µM] | IC50 [2] [µM] | IC50 ([3]; Homo sapiens) [µM] | Compound | IC50 [3] [µM]
1 | < 0.1 | 0.1 to 0.5 | 0.1 to 0.5 | Cc1ccc(S(=O)(=O)NC23CCC(C(C)O)(CC2)OC3)cc1-c1cnc2c(N)ncnn12 (racemic) [Example 432, 3-(4-Aminoimidazo[1,2-f][1,2,4]triazin-7-yl)-N-(1-(1-hydroxyethyl)-2-oxabicyclo[2.2.2]octan-4-yl)-4-methylbenzenesulfonamide trifluoroacetate salt (racemic)] | 
2 | < 0.1 | 0.1 to 0.5 | 0.1 to 0.5 | Cc1ccc(S(=O)(=O)NC23CCC(C(O)C(F)(F)F)(CC2)OC3)cc1-c1cnc2c(N)ncnn12 (racemic) [Example 437, 3-(4-Aminoimidazo[1,2-f][1,2,4]triazin-7-yl)-4-methyl-N-(1-(2,2,2-trifluoro-1-hydroxyethyl)-2-oxabicyclo[2.2.2]octan-4-yl)benzenesulfonamide trifluoroacetate salt (racemic)] | 
3 | < 0.1 | 0.1 to 0.5 | < 0.1 | Cc1ccc(S(=O)(=O)NC23CCC(C(O)c4ccccc4)(CC2)OC3)cc1-c1cnc2c(N)ncnn12 (racemic) [Example 438, 3-(4-Aminoimidazo[1,2-f][1,2,4]triazin-7-yl)-N-(1-(hydroxy(phenyl)methyl)-2-oxabicyclo[2.2.2]octan-4-yl)-4-methylbenzenesulfonamide trifluoroacetate salt (racemic)] | 
4 | < 0.1 | 0.5 to 2 | 0.5 to 1 | Cc1ccc(S(=O)(=O)N2C[C@@H]3CCO[C@@H]3C2)cc1-c1cnc2c(N)ncnn12 (relative stereo) [Example 211, 7-(5-((cis-Hexahydro-5H-furo[2,3-c]pyrrol-5-yl)sulfonyl)-2-methylphenyl)imidazo[2,1-f][1,2,4]triazin-4-amine] | 
5 | < 0.1 | 0.1 to 0.5 |  | Cc1ccc(S(=O)(=O)N[C@H]2CC[C@@H](C#N)C2)cc1-c1cnc2c(N)nc(C(F)(F)F)nn12 (single isomer, unassigned) [Example 320] | 0.1 to 0.5
6 | < 0.1 | < 0.1 |  | Cc1ccc(S(=O)(=O)N[C@H]2CC[C@@H](C#N)C2)cc1-c1cnc2c(N)nc(C(F)(F)F)nn12 (single isomer, unassigned) [Example 321] | < 0.1
7 | < 0.1 | 0.1 to 0.5 | > 1 | Cc1ccc(S(=O)(=O)N[C@H]2CC[C@H](O)CC2)cc1-c1cnc2c(N)cc(-c3cnn(C)c3)cn12 [Example 8, 3-[8-Amino-6-(1-methyl-1H-pyrazol-4-yl)imidazo[1,2-a]pyridin-3-yl]-N-(trans-4-hydroxycyclohexyl)-4-methylbenzenesulfonamide bis(trifluoroacetate)] | 
8 | < 0.1 | 0.5 to 2 | > 1 | Cc1ccc(S(=O)(=O)N[C@H]2CC[C@H](O)CC2)cc1-c1cnc2c(N)cc(-c3cncnc3)cn12 [Example 9, 3-(8-Amino-6-pyrimidin-5-ylimidazo[1,2-a]pyridin-3-yl)-N-(trans-4-hydroxycyclohexyl)-4-methylbenzenesulfonamide] | 
9 | < 0.1 | > 2 |  | Cc1ccc(S(=O)(=O)N2CCCC(CNC(=O)OC(C)(C)C)C2)cc1-c1cnc2c(N)nc(C(F)(F)F)cn12 (stereo not shown) [Example 512, tert-Butyl ((1-((3-(8-amino-6-(trifluoromethyl)imidazo[1,2-a]pyrazin-3-yl)-4-methylphenyl)sulfonyl)piperidin-3-yl)methyl)carbamate] | 
10 | 0.1 to 0.5 | 0.5 to 2 |  | Cc1ccc(S(=O)(=O)N2CCCC(CNC(=O)CN(C)C)C2)cc1-c1cnc2c(N)nc(C(F)(F)F)cn12 (stereo not shown) [Example 514, N-((1-((3-(8-Amino-6-(trifluoromethyl)imidazo[1,2-a]pyrazin-3-yl)-4-methylphenyl)sulfonyl)piperidin-3-yl)methyl)-2-(dimethylamino)acetamide] | 
11 | 0.1 to 0.5 | > 2 |  | Cc1ccc(S(=O)(=O)N2CCCC(NC(=O)OC(C)(C)C)C2)cc1-c1cnc2c(N)nc(C(F)(F)F)cn12 (stereo not shown) [Example 515, tert-Butyl (1-((3-(8-amino-6-(trifluoromethyl)imidazo[1,2-a]pyrazin-3-yl)-4-methylphenyl)sulfonyl)piperidin-3-yl)carbamate] | 
12 | < 0.1 | 0.5 to 2 |  | Cc1ccc(S(=O)(=O)N2CCCC(NC(=O)C3CC3)C2)cc1-c1cnc2c(N)nc(C(F)(F)F)cn12 (stereo not shown) [Example 517, N-(1-((3-(8-Amino-6-(trifluoromethyl)imidazo[1,2-a]pyrazin-3-yl)-4-methylphenyl)sulfonyl)piperidin-3-yl)cyclopropanecarboxamide trifluoroacetate] | 

Further lines, the compound ahead of its results:

Row | Compound | IC50 [1] [µM] | IC50 [2] [µM] | IC50 ([3]; Homo sapiens) [µM] | IC50 [3] [µM]
13 | 3-(4-Amino-2-(trifluoromethyl)imidazo[2,1- f][1,2,4]triazin-7-yl)-N-(3- (hydroxymethyl)bicyclo[2.1.1]pentan-1-yl)-4-(methyl- d3)benzenesulfonamide trifluoroacetate salt [Example 420] | < 0.1 | 0.1 to 0.5 |  | 0.1 to 0.5
14 | 3-[8-Amino-6-(2-fluoro-6-methoxyphenyl)imidazo[1,2-a]pyrazin-3-yl]-N-(trans-4-hydroxycyclohexyl)-4-methylbenzenesulfonamide [Example 34] | < 0.1 | 0.1 to 0.5 |  | 0.1 to 0.5
15 | 3-{8-Amino-6-[3-(methylsulfonyl)phenyl]imidazo[1,2-a]pyrazin-3-yl}-N-(trans-4-hydroxycyclohexyl)-4-methylbenzenesulfonamide [Example 33] | < 0.1 | 0.1 to 0.5 |  | 0.5 to 1
16 | 5-(4-Amino-2-(trifluoromethyl)imidazo[1,2- f][1,2,4]triazin-7-yl)-2-chloro-N-(4- (hydroxymethyl)bicyclo[1.1.1]hexan-1- yl)benzenesulfonamide [Example 419] | < 0.1 |  |  | > 1
17 | Cc1nc(N)c2ncc(-c3cc(S(=O)(=O)NCC(O)C(F)(F)F)ccc3C)n2n1 (single isomer, unassigned) [Example 266, 3-(4-Amino-2-methylimidazo[1,2-f][1,2,4]triazin-7-yl)-4-methyl-N-(3,3,3-trifluoro-2-hydroxypropyl)benzenesulfonamide (single enantiomer isolated)] | < 0.1 | 0.1 to 0.5 |  | 0.1 to 0.5
18 | Cc1nc(N)c2ncc(-c3cc(S(=O)(=O)NCC(O)C(F)(F)F)ccc3C)n2n1 (single isomer, unassigned) [Example 267, 3-(4-Amino-2-methylimidazo[1,2-f][1,2,4]triazin-7-yl)-4-methyl-N-(3,3,3-trifluoro-2-hydroxypropyl)benzenesulfonamide (single enantiomer isolated)] | < 0.1 | 0.1 to 0.5 |  | 0.1 to 0.5
19 | Cc1ccc(S(=O)(=O)N[C@H]2CC[C@H](O)CC2)cc1-c1cnc2c(N)cccn12 [Example 1, 3-(8-Aminoimidazo[1,2-a]pyridin-3-yl)-N-(trans-4-hydroxycyclohexyl)-4-methylbenzenesulfonamide trifluoroacetate] | 0.1 to 0.5 | 0.5 to 2 | > 1 | 
20 | CCS(=O)(=O)Nc1cc(-c2cnc3c(N)cccn23)cnc1F [Example 2, N-[5-(8-Aminoimidazo[1,2-a]pyridin-3-yl)-2-fluoropyridin-3-yl]ethanesulfonamide bis(trifluoroacetate)] | 0.1 to 0.5 | 0.5 to 2 | > 1 | 
21 | Cc1ccc(S(=O)(=O)N[C@H]2CC[C@H](O)CC2)cc1-c1cnc2c(N)cc(Cl)cn12 [Example 4, 3-(8-Amino-6-chloroimidazo[1,2-a]pyridin-3-yl)-N-(trans-4-hydroxycyclohexyl)-4-methylbenzenesulfonamide trifluoroacetate] | < 0.1 | 0.1 to 0.5 | < 0.1 | 
22 | CC(=O)Nc1cc(Cl)cn2c(-c3cc(S(=O)(=O)N[C@H]4CC[C@H](O)CC4)ccc3C)cnc12 [Example 5, N-[6-chloro-3-(5-{[(trans-4-hydroxycyclohexyl)amino]sulfonyl}-2-methylphenyl)imidazo[1,2-a]pyridin-8-yl]acetamide] | < 0.1 | 0.1 to 0.5 | 0.1 to 0.5 | 
